The record followed here is article PMC6214715 (Journal of veterinary pharmacology and therapeutics, 2018).

Where two headings read alike, the source gives them in different places.

One series has as its system dog liver microsomes. Format: in vitro ADME. As to conditions: for Km / Vmax: formation of (+)-M5 from substrate.
Another series concerns human liver microsomes. Format: in vitro ADME. As to conditions: pooled human liver microsomes (n = 48); (+)-M1 at 10 μM, (+)-M2 at 0.5 μM. (Microsomes from liver hold many membrane-bound enzymes, among them those of drug oxidation.)
In another series the test system is cat liver microsomes. It counts as in vitro ADME. The following applies: pooled cat liver microsomes (n = 16); (+)-M1 at 10 μM, (+)-M2 at 0.5 μM.
Another series has as its target T1, CYP2B11 (Canis lupus familiaris, UniProt P24460).
T1 sequence (P24460 1-494): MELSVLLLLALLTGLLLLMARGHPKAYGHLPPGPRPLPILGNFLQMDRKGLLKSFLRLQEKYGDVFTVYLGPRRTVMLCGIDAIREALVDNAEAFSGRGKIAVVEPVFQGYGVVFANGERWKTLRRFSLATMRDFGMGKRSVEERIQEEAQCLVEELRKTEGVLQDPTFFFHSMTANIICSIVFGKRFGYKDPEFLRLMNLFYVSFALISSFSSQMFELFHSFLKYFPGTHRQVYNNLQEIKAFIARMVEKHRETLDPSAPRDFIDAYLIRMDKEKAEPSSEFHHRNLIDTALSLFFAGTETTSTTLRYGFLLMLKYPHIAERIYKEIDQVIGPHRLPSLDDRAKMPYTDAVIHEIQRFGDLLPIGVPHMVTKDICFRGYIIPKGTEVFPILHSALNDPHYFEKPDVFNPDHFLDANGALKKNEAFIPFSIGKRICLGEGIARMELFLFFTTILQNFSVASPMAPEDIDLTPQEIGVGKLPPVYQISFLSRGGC
Format: in vitro ADME, canine. As to conditions: recombinant CYP2B11; (+)-M1 10 μM, (+)-M2 0.5 μM.

The next series addresses CYP3A12 (Canis lupus familiaris, UniProt P24463). It counts as in vitro ADME, canine. The following applies: recombinant CYP3A12; (+)-M1 10 μM, (+)-M2 0.5 μM.
A further series concerns the target T2, CYP2D15 (Canis lupus familiaris, UniProt Q29473).
T2 sequence (Q29473 1-500): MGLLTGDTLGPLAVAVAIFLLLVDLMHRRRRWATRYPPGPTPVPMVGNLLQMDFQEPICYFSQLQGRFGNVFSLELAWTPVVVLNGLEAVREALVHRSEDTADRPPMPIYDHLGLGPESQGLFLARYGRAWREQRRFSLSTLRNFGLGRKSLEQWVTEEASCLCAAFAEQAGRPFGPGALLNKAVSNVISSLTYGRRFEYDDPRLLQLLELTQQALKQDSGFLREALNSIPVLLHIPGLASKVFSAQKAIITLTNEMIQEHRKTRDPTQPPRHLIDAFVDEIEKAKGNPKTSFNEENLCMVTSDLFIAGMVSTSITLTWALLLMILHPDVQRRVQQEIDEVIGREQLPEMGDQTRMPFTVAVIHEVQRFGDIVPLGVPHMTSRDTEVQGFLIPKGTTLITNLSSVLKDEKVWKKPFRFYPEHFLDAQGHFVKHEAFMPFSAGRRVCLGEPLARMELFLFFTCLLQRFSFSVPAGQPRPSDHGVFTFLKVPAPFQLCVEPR
Format: in vitro ADME, canine. As to conditions: recombinant CYP2D15; (+)-M1 10 μM, (+)-M2 0.5 μM.

The next series concerns the target T3, CYP1A1 (Canis lupus familiaris, UniProt P56590).
T3 sequence (P56590 1-524): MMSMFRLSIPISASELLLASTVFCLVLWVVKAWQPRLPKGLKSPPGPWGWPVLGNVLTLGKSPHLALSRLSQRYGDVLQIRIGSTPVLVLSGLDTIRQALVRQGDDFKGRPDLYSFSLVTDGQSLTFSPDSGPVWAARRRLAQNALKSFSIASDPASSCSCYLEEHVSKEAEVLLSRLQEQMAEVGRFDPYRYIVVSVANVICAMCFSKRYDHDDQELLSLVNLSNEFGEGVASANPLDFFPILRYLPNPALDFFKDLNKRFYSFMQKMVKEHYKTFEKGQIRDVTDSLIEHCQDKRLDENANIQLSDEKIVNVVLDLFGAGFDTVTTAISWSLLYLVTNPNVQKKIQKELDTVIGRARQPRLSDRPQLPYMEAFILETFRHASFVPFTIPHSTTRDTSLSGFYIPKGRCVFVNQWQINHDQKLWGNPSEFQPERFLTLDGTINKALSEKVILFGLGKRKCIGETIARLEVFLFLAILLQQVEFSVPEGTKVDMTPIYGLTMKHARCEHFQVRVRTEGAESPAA
Format: in vitro ADME, canine. The following applies: recombinant CYP1A1; (+)-M1 10 μM, (+)-M2 0.5 μM.

A further series addresses T4, CYP1A2 (Canis lupus familiaris, UniProt P56592).
T4 sequence (P56592 1-512): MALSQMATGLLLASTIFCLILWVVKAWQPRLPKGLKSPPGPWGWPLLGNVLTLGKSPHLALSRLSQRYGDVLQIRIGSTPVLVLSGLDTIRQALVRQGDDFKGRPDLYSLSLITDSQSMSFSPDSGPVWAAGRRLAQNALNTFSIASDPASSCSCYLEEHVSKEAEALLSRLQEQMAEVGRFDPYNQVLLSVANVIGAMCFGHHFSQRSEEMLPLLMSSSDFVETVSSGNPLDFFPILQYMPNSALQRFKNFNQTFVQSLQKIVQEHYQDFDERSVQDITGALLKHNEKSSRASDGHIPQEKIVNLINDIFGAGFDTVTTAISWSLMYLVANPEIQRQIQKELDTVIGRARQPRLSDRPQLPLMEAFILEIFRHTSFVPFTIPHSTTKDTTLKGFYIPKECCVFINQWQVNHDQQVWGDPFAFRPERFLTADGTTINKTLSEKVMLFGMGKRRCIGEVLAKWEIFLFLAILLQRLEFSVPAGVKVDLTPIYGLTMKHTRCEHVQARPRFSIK
It counts as in vitro ADME, canine. The following applies: recombinant CYP1A2; (+)-M1 10 μM, (+)-M2 0.5 μM.

The next series relates to CYP3A26. Format: in vitro ADME, canine. The following applies: recombinant CYP3A26; (+)-M1 10 μM, (+)-M2 0.5 μM.

Sequence of CYP3A12 (P24463 whole entry): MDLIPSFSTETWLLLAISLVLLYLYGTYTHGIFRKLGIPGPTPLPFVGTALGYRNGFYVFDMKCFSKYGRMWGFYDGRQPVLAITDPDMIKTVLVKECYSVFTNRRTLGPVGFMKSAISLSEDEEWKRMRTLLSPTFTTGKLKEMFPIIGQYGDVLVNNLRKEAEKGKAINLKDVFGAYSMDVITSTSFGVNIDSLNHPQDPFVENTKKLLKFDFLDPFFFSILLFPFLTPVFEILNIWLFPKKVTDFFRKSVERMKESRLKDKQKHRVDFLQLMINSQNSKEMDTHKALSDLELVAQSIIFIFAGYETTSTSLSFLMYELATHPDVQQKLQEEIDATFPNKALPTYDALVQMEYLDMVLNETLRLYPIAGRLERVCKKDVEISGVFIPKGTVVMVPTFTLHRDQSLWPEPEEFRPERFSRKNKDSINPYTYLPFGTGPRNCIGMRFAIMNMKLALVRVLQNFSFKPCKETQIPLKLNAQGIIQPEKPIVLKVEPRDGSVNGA

For the compound `CN(C)CC1CCCCC1(O)c1cccc(O)c1.Cl` (single isomer, unassigned; (+)) [(+)-M1, (+)-O-desmethyltramadol hydrochloride], the Km in the series with dog liver microsomes (Dog 10 liver microsomes) came out at 158 µM; with dog liver microsomes (Dog 31 liver microsomes), 64 µM; in the series with dog liver microsomes (Dog 46 liver microsomes), 108 µM; in the series on dog liver microsomes (pDLM (liver microsomes pooled from 59 dogs)) it was 112 µM. Moreover, the Vmax in the series on dog liver microsomes (Dog 10 liver microsomes) was 63 pmol/min/mg protein; in the series with dog liver microsomes (Dog 31 liver microsomes) it was 67 pmol/min/mg protein; in the series with dog liver microsomes (Dog 46 liver microsomes) it was 94 pmol/min/mg protein; in the series on dog liver microsomes (pDLM (pooled from 59 dogs)), 61 pmol/min/mg protein. Also, the “(+)-M5 formation rate (in words)” value was “highest activities” with dog liver microsomes (pooled dog liver microsomes (n = 59), (+)-M1 at 10 μM, (+)-M2 at 0.5 μM); “low activities” with human liver microsomes; “low activities” with cat liver microsomes. The “formation rate of (+)-M5 (in words)” value at CYP2B11 was “somewhat lower activities”; on CYP3A12, “only very low activities”; on CYP2D15, “only very low activities”; at CYP1A1 it was “only very low activities”; at CYP1A2, “only very low activities”; in the series on CYP3A26, “only very low activities”.

In general, Km refers to the substrate concentration at which the rate is half of its maximum.
